Measured values from patent EP1231468A1, “METHOD FOR DETECTING EXOGENOUS ENDOCRINE DISRUPTING CHEMICAL AND DETECTION APPARATUS” (Central Research Institute of Electric Power Industry, priority 1999, dated 2001).

Target: T1, human estrogen receptor α (Homo sapiens, UniProt P03372)
T1 sequence (P03372 1-595): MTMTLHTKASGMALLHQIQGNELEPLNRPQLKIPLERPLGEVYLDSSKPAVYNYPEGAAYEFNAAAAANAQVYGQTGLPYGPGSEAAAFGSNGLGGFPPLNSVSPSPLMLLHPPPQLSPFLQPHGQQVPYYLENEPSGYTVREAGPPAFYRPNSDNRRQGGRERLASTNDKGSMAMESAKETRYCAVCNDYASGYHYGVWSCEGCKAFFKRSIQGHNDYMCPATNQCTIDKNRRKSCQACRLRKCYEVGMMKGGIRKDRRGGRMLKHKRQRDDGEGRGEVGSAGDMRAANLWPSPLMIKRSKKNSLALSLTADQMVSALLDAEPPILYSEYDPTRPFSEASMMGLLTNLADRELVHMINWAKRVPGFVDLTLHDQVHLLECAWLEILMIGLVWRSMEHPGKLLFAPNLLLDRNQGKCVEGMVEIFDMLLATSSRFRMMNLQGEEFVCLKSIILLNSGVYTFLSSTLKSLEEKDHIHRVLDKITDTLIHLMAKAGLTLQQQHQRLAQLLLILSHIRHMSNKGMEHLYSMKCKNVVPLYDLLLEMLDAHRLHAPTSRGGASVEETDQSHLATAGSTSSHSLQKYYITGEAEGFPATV
Experiment: Competitive bonding of E2-BSA-CY5 and test substance to immobilized estrogen receptor, flow-type fluorescence detection
Type: binding
Details: for range of concentration in which reduction in fluorescence intensity can be confirmed / substance can be detected: bonding inhibition ratio against concentration, Fig. 4, Fig. 6; for inhibition of bonding of E2-BSA-CY5 to the receptor (reduction in fluorescence intensity): various concentrations added to E2-BSA-CY5 of fixed concentration, Fig. 3, Fig. 5
Experimental: As an estrogen receptor, a human estrogen receptor α [manufactured by PanVela Corporation, Drive Madison, Wisconsin, USA] was used.
Immobilization of the estrogen receptor to a carrier (beads) was carried out by natural adsorption. […] 0.2 g of the beads was put in a small test tube, and suspended in 1 ml of a buffer for bonding (50 mM tris HCl, 500 mM KCl, 2mM DDT, 1mM EDTA, 10% glycerol, pH 7.8). 70 pmol of the estrogen receptor was put in this suspension, and blended for 30 minutes at a room temperature. Thereafter, 100 µl of bovine serum albumin was added so as to obtain the final concentration of 1 mg/ml. After addition, it is further blended for 30 minutes at a room temperature. Subsequently, the particles were washed by using the same buffer, again suspended in 30 ml of the same buffer, and used for measurement. It is to be noted that, as beads for comparison in which the estrogen receptor is not immobilized, those obtained by adding only bovine serum albumin to the beads were prepared by the similar operation.
In order to provide this fluorescence dye, a CY5 labeling kit [manufactured by Amersham Life Science, Arlington Heights, Illinois, USA] was used. The 17β-estradiol-bovine serum albumin having the fluorescence dye given thereto and the free fluorescence dye were partitioned by the gel filtration chromatography.
For measurement of a fluorescence intensity, a detector having a flow type fluorophotometer [manufactured by Sapidyne Instrument Inc., Boise, Idaho, USA] incorporated therein was used. […] The fluorescence intensity can be measured in units of an electrical signal by an excitation light source 3 and the detector 4 arranged with a glass cell 1 having a diameter of 1.5 mm and a length of 30 mm therebetween. The immobilized estrogen receptor 2 having the shape of beads is filled in the glass cell 1 by being banked up and laminated by a screen S consisting of 50 µm nylon mesh set in the glass cell 1. […] The material remaining between beads, which is not bonded to the receptor 2, is discharged from the direction indicated by an arrow b by leading only the buffer at a speed of 1.5 ml/min. Thereafter, the remaining fluorescence intensity was evaluated as a quantity of bonding. Specifically, the buffer for bonding was diluted with E2-BSA-CY5 so as to obtain approximately 400 ng/ml. It is to be noted that this concentration was appropriately adjusted in accordance with a ratio of provision of the fluorescence in E2-BSA-CY5. The same quantity of the buffer for bonding in which a natural hormone or a chemical substance with the already-known concentration was dissolved was added to the diluted solution and left to take its own course at a room temperature for 30 minutes. Incidentally, in case of a water-insoluble material, it was completely dissolved in dimethyl sulfoxide and then appropriately diluted. Further, it was left to stand and used for measurement.

Row | Compound | range of concentration in which reduction in fluorescence intensity can be confirmed / substance can be detected | inhibition of bonding of E2-BSA-CY5 to the receptor (reduction in fluorescence intensity)
1 | CC(C)(c1ccc(O)cc1)c1ccc(O)cc1 [bisphenol A] | 10^-8 to 10^-6 M | the fluorescence intensity was lowered
2 | C[C@]12CC[C@H]3[C@@H](CCC4=CC(=O)CC[C@@]43C)[C@@H]1CC[C@@H]2O [testosterone, reference compound] |  | did not inhibit
3 | nonylphenol | 10^-9 to 10^-5 M | the fluorescence intensity was lowered
